The values below come from patent publication US20090286827A1, “NOVEL BI-ARYL AMINES” (priority 2006, published 2009).

The target of the assay is T1, mGluR5 (Homo sapiens, UniProt P41594).
T1 construct: expressed in transfected cells
T1 sequence (P41594 21-1180 isoform P41594-2 limits assumed): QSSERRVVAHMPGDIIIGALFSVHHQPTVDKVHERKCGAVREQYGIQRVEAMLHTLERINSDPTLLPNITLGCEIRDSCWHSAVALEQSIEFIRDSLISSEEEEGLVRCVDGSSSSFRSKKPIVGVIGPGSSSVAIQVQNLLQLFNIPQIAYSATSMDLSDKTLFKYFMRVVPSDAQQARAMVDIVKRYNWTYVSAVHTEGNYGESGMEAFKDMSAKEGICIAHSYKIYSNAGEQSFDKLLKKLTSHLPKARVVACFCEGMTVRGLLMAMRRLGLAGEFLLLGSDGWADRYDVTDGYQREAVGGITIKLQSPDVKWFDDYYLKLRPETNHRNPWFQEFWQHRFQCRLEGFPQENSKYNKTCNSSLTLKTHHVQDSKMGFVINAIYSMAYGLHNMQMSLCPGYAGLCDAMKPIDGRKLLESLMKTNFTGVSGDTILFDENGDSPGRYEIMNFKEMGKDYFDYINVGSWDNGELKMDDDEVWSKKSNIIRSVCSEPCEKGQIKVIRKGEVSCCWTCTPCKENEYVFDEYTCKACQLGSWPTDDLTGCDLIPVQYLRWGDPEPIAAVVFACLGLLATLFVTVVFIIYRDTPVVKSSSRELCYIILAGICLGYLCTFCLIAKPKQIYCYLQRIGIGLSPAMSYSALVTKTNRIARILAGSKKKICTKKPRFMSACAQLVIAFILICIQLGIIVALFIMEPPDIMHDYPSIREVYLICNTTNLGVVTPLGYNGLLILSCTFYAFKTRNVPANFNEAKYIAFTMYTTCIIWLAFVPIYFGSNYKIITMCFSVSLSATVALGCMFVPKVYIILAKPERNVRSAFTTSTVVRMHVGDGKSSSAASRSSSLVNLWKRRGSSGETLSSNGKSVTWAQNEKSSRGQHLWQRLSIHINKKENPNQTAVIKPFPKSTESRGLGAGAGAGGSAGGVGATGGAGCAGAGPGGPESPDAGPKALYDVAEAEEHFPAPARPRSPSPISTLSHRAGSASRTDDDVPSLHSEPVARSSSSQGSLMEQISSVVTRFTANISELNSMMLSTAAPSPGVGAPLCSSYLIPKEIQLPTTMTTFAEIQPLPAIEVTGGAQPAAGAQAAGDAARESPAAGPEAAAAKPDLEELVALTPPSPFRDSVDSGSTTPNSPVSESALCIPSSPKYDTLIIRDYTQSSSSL
Description: inhibition of the glutamate induced elevation of intracellular Ca2+-concentration. In kind it is cell-based. The settings on record: inhibition of glutamate induced elevation of intracellular Ca2+ at a concentration of 10 μM; read-out: mGluR5 Activity inh. at 10 μM [%]. An excerpt:
This can be determined in vitro for example at recombinant human metabotropic glutamate receptors, especially PLC-coupled subtypes thereof such as mGluR5, using different procedures like, for example, measurement of the inhibition of the agonist induced elevation of intracellular Ca^2+ concentration in accordance with L. P. Daggett et al., Neuropharm. Vol. 34, pages 871-886 (1995), P. J. Flor et al., J. Neurochem. Vol. 67, pages 58-63 (1996) or by determination to what extent the agonist induced elevation of the inositol phosphate turnover is inhibited as described by T. Knoepfel et al., Eur. J. Pharmacol. Vol. 288, pages 389-392 (1995), L. P. Daggett et al., Neuropharm. Vol. 34, pages 871-886 (1995) and references cited therein. Isolation and expression of human mGluR subtypes are described in U.S. Pat. No. 5,521,297. Selected agents of the invention show IC50 values for the inhibition of the agonist (e.g. glutamate or quisqualate) induced elevation of intracellular Ca2+ concentration or the agonist (e.g. glutamate or quisqualate) induced inositol phosphate turnover, measured in recombinant cells expressing hmGluR5a of about 1 nM to about 50 μM.
Activity of compounds of the present invention was examined by measurement of the inhibition of the glutamate induced elevation of intracellular Ca^2+-concentration following similar methods than those described in L. P. Daggett et al., Neuropharm. Vol. 34, pages 871-886 (1995), P. J. Flor et al., J. Neurochem. Vol. 67, pages 58-63 (1996).
The table below represents percentages of inhibition of the glutamate induced elevation of intracellular Ca^2+-concentration at a concentration of 10 μM.
In the case of `CC(C)(C)c1cnc(-c2cnc(Nc3ccc(Cl)cc3)c(Cl)c2)[nH]1` [Compound 37, [5-(5-tert-Butyl-1H-imidazol-2-yl)-3-chloro-pyridin-2-yl]-(4-chloro-phenyl)-amine], the inhibition at 10 µM came out at 95%.

With `Cn1cc(C(C)(C)C)nc1-c1cnc(Nc2ccc(Cl)cc2)c(Cl)c1` [Compound 38, [5-(4-tert-Butyl-1-methyl-1H-imidazol-2-yl)-3-chloro-pyridin-2-yl]-(4-chloro-phenyl)-amine], the inhibition at 10 µM was determined as 86%. Then `CCn1cc(C(C)(C)C)nc1-c1cnc(Nc2ccc(Cl)cc2)c(Cl)c1` [Compound 39, [5-(4-tert-Butyl-1-ethyl-1H-imidazol-2-yl)-3-chloro-pyridin-2-yl]-(4-chloro-phenyl)-amine], with 97%; and `CCCn1cc(C(C)(C)C)nc1-c1cnc(Nc2ccc(Cl)cc2)c(Cl)c1` [Compound 40, [5-(4-tert-Butyl-1-propyl-1H-imidazol-2-yl)-3-chloro-pyridin-2-yl]-(4-chloro-phenyl)-amine], with 100%. Then `CCCCn1cc(C(C)(C)C)nc1-c1cnc(Nc2ccc(Cl)cc2)c(Cl)c1` [Compound 41, [5-(1-Butyl-4-tert-butyl-1H-imidazol-2-yl)-3-chloro-pyridin-2-yl]-(4-chloro-phenyl)-amine], with 79%; and `CCCn1c(-c2cnc(Nc3ccc(Cl)cc3)c(Cl)c2)nc(C)c1C` [Compound 42, [3-Chloro-5-(4,5-dimethyl-1-propyl-1H-imidazol-2-yl)-pyridin-2-yl]-(4-chloro-phenyl)-amine], with 94%; and `CCc1c(C)n(CC)c(-c2cnc(Nc3ccc(Cl)cc3)c(Cl)c2)[n+]1CC` [Compound 43, 2-[5-Chloro-6-(4-chloro-phenylamino)-pyridin-3-yl]-1,3,5-triethyl-4-methyl-3H-imidazol-1-ium iodide], with 37%.

`CCCCc1cnnn1-c1cnc(Nc2ccc(Cl)cc2)c(Cl)c1` [Compound 44, [5-(5-Butyl-[1,2,3]triazol-1-yl)-3-chloro-pyridin-2-yl]-(4-chloro-phenyl)-amine]: the inhibition at 10 µM stood at 98%. The result for `CCCc1cnnn1-c1cnc(Nc2ccc(Cl)cc2)c(Cl)c1` [Compound 45, (4-Chloro-phenyl)-[3-chloro-5-(5-propyl-[1,2,3]triazol-1-yl)-pyridin-2-yl]-amine] reads 89%; that for `CCCc1nn[nH]c1-c1cnc(Nc2ccc(Cl)cc2)c(Cl)c1` [Compound 46, (4-Chloro-phenyl)-[3-chloro-5-(5-propyl-3H-[1,2,3]triazol-4-yl)-pyridin-2-yl]-amine], 68%. Then `CC(C)c1nccn1-c1cnc(Nc2ccc(Cl)cc2)c(Cl)c1` [Compound 47, [3-Chloro-5-(2-isopropyl-imidazol-1-yl)-pyridin-2-yl]-(4-chloro-phenyl)-amine], with 34%; and `Cc1cncn1-c1cnc(Nc2ccc(Cl)cc2)c(Cl)c1` [Compound 48, [3-Chloro-5-(5-methyl-imidazol-1-yl)-pyridin-2-yl]-(4-chloro-phenyl)-amine], with 32%; and `Cc1cn(-c2cnc(Nc3ccc(Cl)cc3)c(Cl)c2)cn1` [Compound 49, [3-Chloro-5-(4-methyl-imidazol-1-yl)-pyridin-2-yl]-(4-chloro-phenyl)-amine], with 35%.
